From ChEMBL document CHEMBL3301361, “Experimental in vitro DMPK and physicochemical data on a set of publicly disclosed compounds”
Values after ≈ are worked out from the molar mass of the structure shown.

Columns and labels:
physchem [1] = conditions: octan-1-ol/water
in vitro [2] = conditions: human
physchem [3] = assay: physchem
in vitro [4] = conditions: SD, HW or BN, rat, plasma
in vitro [5] = conditions: human, plasma
in vitro [6] = conditions: hepatocytes
physchem [7] = assay: physchem; remark: listed apart in the source
in vitro [8] = conditions: Beagle, dog, plasma
in vitro [9] = conditions: human, hepatocytes
physchem [10] = conditions: pH 7.4 buffer

Structure (SMILES): CC1=C(CC(=O)O)c2cc(F)ccc2/C1=C\c1ccc([S+](C)[O-])cc1 (stereo not drawn)
- logD (physchem [1]; pH 7.4, LogD7.4): -0.01
- microsomal CLint (in vitro [2]; liver microsomes): < 3 µL/min/mg
- pKa (physchem [3]): 3.9

Structure (SMILES): O=C(O)/C=C(/c1ccccc1)C(F)(F)F
- pKa (physchem [3]): 2.41

Structure (SMILES): CCNC(=O)C[C@@H]1N=C(c2ccc(Cl)cc2)c2cc(OC)ccc2-n2c(C)nnc21 [MOLIBRESIB]
- fraction unbound at 5 h (in vitro [4]): 0.314
- fraction unbound at 5 h (in vitro [5]): 0.24
- hepatocyte CLint (in vitro [6]): 10.2 µL/min/1e6 cells
- pKa (physchem [7]): 2.1
- microsomal CLint (in vitro [2]; microsomes): 14.1 µL/min/mg
- fraction unbound at 5 h (in vitro [8]): 0.324

Structure (SMILES): Cc1cn(Cc2ccccc2)c(=O)[nH]c1=O
- logD (physchem [1]; pH 7.4): 1.19
- pKa (physchem [3]): 9.4

Structure (SMILES): Cn1nnnc1SCC1=C(C(=O)O)N2C(=O)[C@@H](NC(=O)[C@H](O)c3ccccc3)[C@H]2SC1 [CEFAMANDOLE]
- pKa (physchem [3]): 3.29

Structure (SMILES): CC1(C)S[C@@H]2[C@H](NC(=O)[C@H](NC(=O)N3CCNC3=O)c3ccccc3)C(=O)N2[C@H]1C(=O)O [AZLOCILLIN]
- pKa (physchem [3]): 2.41

Structure (SMILES): CN(C(=O)c1c(O)c2ccccc2n(C)c1=O)c1ccccc1 [ROQUINIMEX]
- pKa (physchem [3]): 4.2

Structure (SMILES): CCCc1c2c(cc3c(=O)cc(C(=O)O)oc13)CCCC2 [PROCROMIL]
- pKa (physchem [3]): < 2

Structure (SMILES): Cc1ncc2n1-c1ccc(Cl)cc1C(c1ccccc1F)=NC2 [MIDAZOLAM]
- hepatocyte CLint (in vitro [9]): 32.4 µL/min/1e6 cells
- fraction unbound at 5 h (in vitro [4]): 0.0457
- fraction unbound at 5 h (in vitro [5]): 0.0175
- hepatocyte CLint (in vitro [6]): 121 µL/min/1e6 cells
- pKa (physchem [7]): 6.11
- solubility thermodynamic (physchem [10]): 72.4 µM (≈ 23.6 µg/mL)
- fraction unbound at 5 h (in vitro [8]): 0.02

Structure (SMILES): Cc1ccc2c(c1)c(Sc1ccc(Cl)cc1)c(C)n2CC(=O)O
- logD (physchem [1]; pH 7.4, LogD7.4): 2.18
- microsomal CLint (in vitro [2]; liver microsomes): 7 µL/min/mg
- pKa (physchem [3]): 4.1

Structure (SMILES): C(=C\c1nn[nH]n1)/c1ccccc1
- logD (physchem [1]; pH 7.4, LogD7.4): -0.4
- pKa (physchem [3]): 4.5

Structure (SMILES): CCCCc1oc2ccc(NS(C)(=O)=O)cc2c1C(=O)c1ccc(OCCCN(CCCC)CCCC)cc1 [DRONEDARONE]
- fraction unbound at 5 h (in vitro [5]; PPB): 0.0009
- pKa (physchem [3]): 7.69

Structure (SMILES): O=C(O)c1ccc(-c2ccc(Cl)c(C(=O)NCC34CC5CC(CC(C5)C3)C4)c2)cc1
- fraction unbound at 5 h (in vitro [4]): 0.0074
- fraction unbound at 5 h (in vitro [5]; PPB): 0.0077
- logD (physchem [1]; pH 7.4, LogD7.4): 2.48
- pKa (physchem [3]): 4.1

Structure (SMILES): CCS(=O)(=O)c1ccc(-c2cc(C(F)(F)F)ccc2CCC(=O)O)c(C)c1
- fraction unbound at 5 h (in vitro [5]; PPB): 0.0256
- microsomal CLint (in vitro [2]; liver microsomes): < 3 µL/min/mg
- pKa (physchem [3]): 4.2

Structure (SMILES): CCS(=O)(=O)c1ccc(-c2cc(C(F)(F)F)ccc2OC(C)(C)C(=O)O)c(C)c1
- pKa (physchem [3]): 3.2

Structure (SMILES): NS(=O)(=O)c1cc(C2(O)NC(=O)c3ccccc32)ccc1Cl (stereo not drawn) [CHLORTHALIDONE]
- logD (physchem [1]; pH 7.4): 0.97
- pKa (physchem [3]): 9.11
- solubility thermodynamic (physchem [10]): 501 µM (≈ 170 µg/mL)

Structure (SMILES): CC(C)NCC(O)COc1ccc(COCCOC(C)C)cc1 (stereo not drawn) [BISOPROLOL]
- fraction unbound at 5 h (in vitro [4]): 0.768
- hepatocyte CLint (in vitro [6]): 25.1 µL/min/1e6 cells
- pKa (physchem [7]): 9.87
- logD (physchem [1]; pH 7.4, LogD7.4): 0.1
- fraction unbound at 5 h (in vitro [8]): 0.743

Structure (SMILES): Cc1onc(-c2c(F)cccc2Cl)c1C(=O)N[C@@H]1C(=O)N2[C@@H]1SC(C)(C)[C@@H]2C(=O)O [FLOXACILLIN]
- pKa (physchem [3]): 2.46

Structure (SMILES): N#Cc1cccc(S(=O)(=O)NC[C@@H](O)CN2CCC(Oc3ccc(Cl)c(Cl)c3)CC2)c1
- pKa (physchem [3]): 10.1

Structure (SMILES): CCC(Oc1ccc(C(F)(F)F)cc1-c1ccc(S(=O)(=O)CC)cc1C)C(=O)O (stereo not drawn)
- logD (physchem [1]; pH 7.4, LogD7.4): 0.31
- pKa (physchem [3]): 3.4

Structure (SMILES): N#Cc1sccc1NS(=O)(=O)c1ccc(Cl)cc1
- pKa (physchem [3]): 5.1

Structure (SMILES): O=C(O)COc1ccc(Cl)cc1CN1CCN(S(=O)(=O)c2ccccc2)CC1
- fraction unbound at 5 h (in vitro [4]): 0.132
- fraction unbound at 5 h (in vitro [5]; PPB): 0.0383
- pKa (physchem [7]): 6.8
- logD (physchem [1]; pH 7.4, LogD7.4): 0.49
- fraction unbound at 5 h (in vitro [8]): 0.04

Structure (SMILES): Cc1ccc(S(=O)(=O)Nc2c(C(=O)N[C@@H](C)C(C)(C)C)c(C(F)(F)F)nn2-c2ccccc2)cc1
- fraction unbound at 5 h (in vitro [4]): 0.0097
- fraction unbound at 5 h (in vitro [5]; PPB): 0.0043
- hepatocyte CLint (in vitro [6]): 18.8 µL/min/1e6 cells
- microsomal CLint (in vitro [2]; liver microsomes): 120 µL/min/mg
- pKa (physchem [3]): 3.8

Structure (SMILES): CCn1nc(C(=O)O)c(=O)c2cc3c(cc21)OCO3 [CINOXACIN]
- pKa (physchem [3]): 4.36

Structure (SMILES): Nc1ccc(S(=O)(=O)Nc2nccs2)cc1 [SULFATHIAZOLE]
- logD (physchem [1]; pH 7.4, LogD7.4): -0.37
- pKa (physchem [3]): 7.01

Structure (SMILES): O=C(O)c1ccccc1Nc1cccc(C(F)(F)F)c1 [FLUFENAMIC ACID]
- logD (physchem [1]; pH 7.4): 2.01
- pKa (physchem [3]): 3.56

Structure (SMILES): O=C(O)c1cc(=O)c2cc(Cl)ccc2o1
- pKa (physchem [3]): < 2

Structure (SMILES): N#Cc1c(O)nc(N)nc1-c1ccccc1
- fraction unbound at 5 h (in vitro [4]): 0.0366
- fraction unbound at 5 h (in vitro [5]; PPB): 0.0366
- pKa (physchem [3]): 6.52

Structure (SMILES): Cc1nn(-c2ccccc2)c(NC(=O)NS(=O)(=O)c2ccc(Cl)cc2)c1C#N
- fraction unbound at 5 h (in vitro [4]): 0.0175
- hepatocyte CLint (in vitro [6]): 21.5 µL/min/1e6 cells
- microsomal CLint (in vitro [2]; microsomes): < 3 µL/min/mg
- pKa (physchem [3]): 2.3

Structure (SMILES): COc1nc(Cl)c(Cl)nc1NS(=O)(=O)c1ccc(Cl)s1
- fraction unbound at 5 h (in vitro [5]; PPB): 0.0008
- microsomal CLint (in vitro [2]; liver microsomes): 10 µL/min/mg
- pKa (physchem [3]): 3.6

Structure (SMILES): O=C(O)COc1ccc([N+](=O)[O-])cc1-c1ccccc1
- fraction unbound at 5 h (in vitro [5]; PPB): 0.0041
- logD (physchem [1]; pH 7.4, LogD7.4): -0.69
- pKa (physchem [3]): 2.7

Structure (SMILES): CCS(=O)(=O)c1ccc(-c2cc(C(F)(F)F)ccc2OCC(=O)O)c(Cl)c1
- fraction unbound at 5 h (in vitro [4]): 0.0313
- microsomal CLint (in vitro [2]; liver microsomes): < 3 µL/min/mg
- pKa (physchem [3]): 3.3
